Where two headings read alike, the source gives them in different places.

The nature of this series: Static foam test (Waring blender), foam persistence. The format is physicochemical. The note with it: for Foam Volume: ambient temperature; for Foam Quality (%): from flash foam volume and 200 ml solution volume. As for the experimental part: In order to perform static foam testing, 10% aqueous stock solutions of the surfactant compositions were prepared in distilled water. These were added to 10% w/w aqueous sodium chloride solution, such that the concentration of the surfactant in the brine was 1000 ppm.
Surfactant compositions according to the invention were benchmarked against the individual surfactants. A Waring type blender was used.
The flash foam volumes were measured by taking 200 ml of a surfactant composition according to the invention, subjecting it to high shear for 30 seconds at ambient temperature (20° C.) and then transferring the foam immediately to a measuring cylinder (1000 ml) for measurement. This initial volume was the flash volume. The foam and liquid volume was monitored for a further 10 minutes.
The ‘half-life’ of the foam was defined as the time taken for 100 ml of fluid to drain from the foam. Without being bound by theory, an increase in the half-life corresponds to a reduction in the liquid drainage rate and reflects the texture of the foam. Denser foams, as a rule, tend to take longer to drain and therefore are more persistent.
Static foam tests are a rapid and relatively straightforward method to screen the foam performance of surfactants. The method provides information on the stability and quality, i.e. texture (structure), of the foam produced in a Waring blender. The mechanical properties of the foam lamellae and foam structure are determined to some extent by the packing of the surfactant molecules at the gas/liquid interface. The foam structure influences liquid drainage rates and therefore, the persistence or stability of the foam.
Surfactant solutions (200 ml) were subjected to high shear for 30 seconds at ambient temperatures and the foam transferred immediately to a measuring cylinder (1000 ml). The foam and liquid volume was monitored for a further 10 minutes. 10% active aqueous stock solutions of the surfactants were prepared in distilled water and these were added to 10% w/w aqueous sodium chloride solution. The concentration of the surfactant in the brine was 1000 ppm.
The initial foam volume is also called the ‘flash’ foam.

Setting [1] is: 0 s (flash foam), 1000 ppm surfactant in 10% w/w NaCl.
The mark [2] stands for this setting: 120 s, 1000 ppm surfactant in 10% w/w NaCl.
Setting [3] is: 240 s, 1000 ppm surfactant in 10% w/w NaCl.
Setting [4] is: 360 s, 1000 ppm surfactant in 10% w/w NaCl.
The mark [5] stands for this setting: 480 s, 1000 ppm surfactant in 10% w/w NaCl.
The mark [6] stands for this setting: 600 s, 1000 ppm surfactant in 10% w/w NaCl.
The mark [7] stands for this setting: 1000 ppm surfactant in 10% w/w NaCl.
The mark [8] stands for this setting: time for 100 ml of fluid to drain from the foam, 1000 ppm surfactant in 10% w/w NaCl.

In the case of Lauramidopropyl betaine [Mackam LMB], the “Foam Volume” value runs as follows: under setting [1], 670 mL; under setting [2], 524 mL; under setting [3], 486 mL; under setting [4], 430 mL; under setting [5], 360 mL; under setting [6], 350 mL. Under setting [7], the “Foam Quality (%)” value amounted to 70.1%. In addition, the “Half-life” value under setting [8] was 270 s.
Take “Lauramidopropyl hydroxysultaine [Mackam LSB-50]”: the “Foam Volume” value worked out at 600 mL under setting [1]; 406 mL under setting [2]; 350 mL under setting [3]; 280 mL under setting [4]; 240 mL under setting [5]; 210 mL under setting [6]. The “Foam Quality (%)” value under setting [7] came out at 66.7%. Moreover, the “Half-life” value under setting [8] came to 192 s.
As to “Sodium hydroxypropyl sulfonate lauryl glucose crosspolymer [PolySugaNate 160P]”, the “Half-life” value turned out to be 24 s.

The record behind these values is patent US10196556B2, “Surfactant composition” (RHODIA OPERATIONS, priority 2012, dated 2019).
